Data published in ChEMBL document CHEMBL1201862, “PubChem BioAssay data set” (2004).
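The compound was tested at five concentrations on cells cultured in 96-well plates, with a 48-hour exposure period. At the GI50, growth is halved.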 Calls of active or inactive are those of the source. No stated cut-off is given here; in the data, active = GI50 up to about 1.1 µM and inactive = higher.

Tests used:
Assay in all cases: NCI tumour cell line growth inhibition, 48 h
786-0 = test system: 786-0
A549 = test system: A549
ACHN = test system: ACHN
CCRF-CEM = test system: CCRF-CEM
COLO 205 = test system: COLO 205
DLD-1 = test system: DLD-1
DMS-114 = test system: DMS-114
DMS-273 = test system: DMS-273
EKVX = test system: EKVX
HCC 2998 = test system: HCC 2998
HCT-116 = test system: HCT-116
HCT-15 = test system: HCT-15
HL-60 = test system: HL-60
HOP-18 = test system: HOP-18
HOP-62 = test system: HOP-62
HOP-92 = test system: HOP-92
HT-29 = test system: HT-29
IGROV-1 = test system: IGROV-1
K562 = test system: K562
KM-20L2 = test system: KM-20L2
KM12 = test system: KM12
LOX IMVI = test system: LOX IMVI
LXFL 529 = test system: LXFL 529
M14 = test system: M14
M19-MEL = test system: M19-MEL
MOLT-4 = test system: MOLT-4
Malme-3M = test system: Malme-3M
NCI-H226 = test system: NCI-H226
NCI-H23 = test system: NCI-H23
NCI-H460 = test system: NCI-H460
NCI-H522 = test system: NCI-H522
OVCAR-3 = test system: OVCAR-3
OVCAR-4 = test system: OVCAR-4
OVCAR-5 = test system: OVCAR-5
OVCAR-8 = test system: OVCAR-8
RPMI-8226 = test system: RPMI-8226
RXF 393 = test system: RXF 393
RXF 631 = test system: RXF 631
SF-268 = test system: SF-268
SF-295 = test system: SF-295
SF-539 = test system: SF-539
SK-MEL-28 = test system: SK-MEL-28
SK-MEL-2 = test system: SK-MEL-2
SK-MEL-5 = test system: SK-MEL-5
SK-OV-3 = test system: SK-OV-3
SN12C = test system: SN12C
SNB-19 = test system: SNB-19
SNB-75 = test system: SNB-75
SR = test system: SR
SW-620 = test system: SW-620
TK-10 = test system: TK-10
U-251 = test system: U-251
UACC-257 = test system: UACC-257
UACC-62 = test system: UACC-62
UO-31 = test system: UO-31
XF498 = test system: XF498

In the case of `CC1=CP(=O)(OC(C)C)C=C(C)C1=C(Cl)Cl` (stereo unspecified), the GI50 (786-0) is reported as > 100 µM (inactive), the GI50 (A549) is reported as 26.4 µM (inactive) and the GI50 (ACHN) is reported as 47.1 µM (inactive). For the same compound, the GI50 (CCRF-CEM) was 54 µM (inactive), the GI50 (COLO 205) was 18.2 µM (inactive) and the GI50 (DLD-1) was > 100 µM (inactive). The GI50 (DMS-114) was 50.1 µM (inactive), the GI50 (DMS-273) was 44.7 µM (inactive) and the GI50 (EKVX) was > 100 µM (inactive). For the same compound, the GI50 (HCC 2998) was > 100 µM (inactive), the GI50 (HCT-116) was 24.9 µM (inactive) and the GI50 (HCT-15) was 46 µM. The GI50 (HL-60) was 34.9 µM (inactive), the GI50 (HOP-18) was > 100 µM (inactive) and the GI50 (HOP-62) was > 100 µM (inactive). The GI50 (HOP-92) was 16.9 µM (inactive), the GI50 (HT-29) was 45.6 µM (inactive) and the GI50 (IGROV-1) was > 100 µM (inactive). The GI50 (K562) was 42 µM (inactive), the GI50 (KM-20L2) was 39.1 µM (inactive) and the GI50 (KM12) was 22.5 µM (inactive). For the same compound, the GI50 (LOX IMVI) was 57 µM (inactive), the GI50 (LXFL 529) was 30.7 µM (inactive) and the GI50 (M14) was 59.6 µM (inactive). The GI50 (M19-MEL) was 38.4 µM (inactive), the GI50 (MOLT-4) was 57.4 µM (inactive) and the GI50 (Malme-3M) was > 100 µM (inactive). The GI50 (NCI-H226) was 26.2 µM (inactive), the GI50 (NCI-H23) was 52.7 µM (inactive) and the GI50 (NCI-H460) was 68.2 µM (inactive). For the same compound, the GI50 (NCI-H522) was 2.52 µM (inactive), the GI50 (OVCAR-3) was > 100 µM (inactive) and the GI50 (OVCAR-4) was > 100 µM (inactive). For the same compound, the GI50 (OVCAR-5) was > 100 µM (inactive), the GI50 (OVCAR-8) was 68.7 µM (inactive) and the GI50 (RPMI-8226) was 32.7 µM (inactive). The GI50 (RXF 393) was 66.2 µM (inactive), the GI50 (RXF 631) was 11.8 µM (inactive) and the GI50 (SF-268) was > 100 µM (inactive). For the same compound, the GI50 (SF-295) was 45.2 µM (inactive), the GI50 (SF-539) was 84.1 µM (inactive) and the GI50 (SK-MEL-28) was 63.5 µM (inactive). For the same compound, the GI50 (SK-MEL-2) was 20.3 µM (inactive), the GI50 (SK-MEL-5) was 30.8 µM (inactive) and the GI50 (SK-OV-3) was 17.4 µM (inactive). The GI50 (SN12C) was 36.1 µM (inactive), the GI50 (SNB-19) was > 100 µM (inactive) and the GI50 (SNB-75) was > 100 µM (inactive). The GI50 (SR) was 35.5 µM (inactive), the GI50 (SW-620) was 44 µM (inactive) and the GI50 (TK-10) was > 100 µM (inactive). For the same compound, the GI50 (U-251) was 35.7 µM (inactive), the GI50 (UACC-257) was 32.2 µM (inactive) and the GI50 (UACC-62) was 32.6 µM (inactive). For the same compound, the GI50 (UO-31) was 13.1 µM (inactive) and the GI50 (XF498) was > 100 µM (inactive).
